We go through two molecules from US20160206642A1, “CLOCK GENE EXPRESSION LEVEL REGULATOR” (SUNTORY HOLDINGS LIMITED, priority 2013, published 2016).

Experiment [1] deals with Bmal1 clock gene. The experiment is described as follows: Bmal1 clock gene expression in HepG2 cells by qPCR. Conditions: HepG2, 50 μg/mL, eight hours after addition, DMSO control. Type of experiment: cell-based, human. How it is done:
(§1) Cultured cells (human liver cancer-derived cell line HepG2) were seeded at 2.5×10^3 cells/cm^2 in a T-75 flask (BD Falcon™), and medium replacement (RPMI1640, 10% FBS) was performed every three days. The cells reaching 80% confluence were passaged at a concentration of 4.2×10^4 cells/mL in a 6-well plate (BD Falcon™), and in order to entrain the phases of the circadian rhythms of the cells, the medium was replaced with a low-serum medium (RPMI1640, 2% FBS) after three days. Three days after the replacement with a low-serum medium, the cells were subjected to testing. A solution of the test substance in DMSO (50 μg/μL) was prepared and added to the 6-well plate to give a final concentration of the test substance of 50 μg/mL. As a control, DMSO was added to the 6-well plate (to give a final concentration of 0.1%).
(§2) Eight hours after the addition of the test substance, the cells were harvested, and mRNA was extracted according to a conventional method. The extracted mRNA was used to analyze the expression levels of the Bmal1 and Per1 clock genes by qPCR (with Applied Biosystems 7900HT Fast Real-Time PCR System).

Experiment [2] deals with Per1 clock gene. The experiment is described as follows: Per1 clock gene expression in HepG2 cells by qPCR. It is filed as cell-based, human. Conditions: HepG2, 50 μg/mL, eight hours after addition, DMSO control. How it is done: as §1, §2
On the technique in general: In qPCR the cycle at which signal appears reflects the starting amount.

In experiment [3] the test system is Bmal1 clock gene. As to the kind of experiment: Bmal1 clock gene expression in liver of SD rats by quantitative PCR. It is filed as in vivo. Conditions: 200 mg/5 mL/kg orally once daily for 5 days, sampled four hours after the last treatment. As for the experimental part: (§3) Seven-week-old male SD rats were habituated for one week and then classified into a test food group (isolated oleuropein group) and a control group (each group consisting of 6 animals). Next, the isolated oleuropein was dissolved in distilled water (produced by Otsuka Pharmaceutical Co., Ltd.), and the solution was orally administered forcibly to the test food group at a dose of 200 mg/5 mL/kg once daily for 5 days. The control food group was orally fed forcibly with distilled water (produced by Otsuka Pharmaceutical Co., Ltd.) at a dose of 5 mL/kg once daily for 5 days. Four hours after the last treatment, liver sampling was done.
(§4) From the liver samples collected, total RNA was extracted according to a conventional method, and used to analyze the expression levels of the Bmal1 and Per1 clock genes by quantitative PCR (with Applied Biosystems 7900HT Fast Real-Time PCR System).

In experiment [4] the test system is Per1 clock gene. As to the kind of experiment: Per1 clock gene expression in liver of SD rats by quantitative PCR. Type of experiment: in vivo. Conditions: 200 mg/5 mL/kg orally once daily for 5 days, sampled four hours after the last treatment. How it is done: as §3, §4

In the case of `COC(=O)C1=CO[C@@H](C)[C@@H](C=O)C1CC(=O)OCCc1ccc(O)c(O)c1` (mixture of isomers) [3,4-DHPEA-EA, 3,4-Dihydroxyphenylethanol-elenolic acid], the Bmal1 expression result in the experiment on Bmal1 clock gene [1] was “reduced”. The Per1 expression entry with Per1 clock gene [2] is “increasing”.
With `C/C=C1/[C@H](O[C@@H]2O[C@H](CO)[C@@H](O)[C@H](O)[C@H]2O)OC=C(C(=O)OC)[C@H]1CC(=O)OCCc1ccc(O)c(O)c1` [isolated oleuropein, Oleuropein], the “Bmal1 expression as compared to the control group” value in the experiment with Bmal1 clock gene [3] is listed as “significant decrease”. Besides, the “Per1 expression as compared to the control group” value in the experiment on Per1 clock gene [4] is on record as “significant increase”.
